Laboratory results taken from patent US10934310B2, “Inhibitors of Bruton's tyrosine kinase and method of their use” (JANSSEN PHARMACEUTICA NV, priority 2015, dated 2021).

Molecular target: unphosphorylated-BTK kinase domain (UP-BTK), GST-tagged human BTK (389-659aa) (Homo sapiens (Human), UniProt Q06187)
Experiment: BTK Kinase Lanthascreen Binding Assay
Details: compound, 50 nM Tracer 236, 2 nM anti-GST antibody, 60 minutes; pIC50 = negative log of the IC50 in molar
Description: BTK Kinase Lanthascreen Binding Assay:
A BTK kinase lanthascreen binding assay monitors compound binding to unphosphorylated-BTK kinase domain (UP-BTK), by competing with a fluorescent labeled tracer. […] Data were analyzed using Xlfit™ version 5.3 from ID Business Solutions (Guildford), Microsoft Excel add-in. pIC50 refers to the negative log of the IC50 in molar.

Chain of unphosphorylated-BTK kinase domain (UP-BTK), GST-tagged human BTK (389-659aa) (Q06187 389-659): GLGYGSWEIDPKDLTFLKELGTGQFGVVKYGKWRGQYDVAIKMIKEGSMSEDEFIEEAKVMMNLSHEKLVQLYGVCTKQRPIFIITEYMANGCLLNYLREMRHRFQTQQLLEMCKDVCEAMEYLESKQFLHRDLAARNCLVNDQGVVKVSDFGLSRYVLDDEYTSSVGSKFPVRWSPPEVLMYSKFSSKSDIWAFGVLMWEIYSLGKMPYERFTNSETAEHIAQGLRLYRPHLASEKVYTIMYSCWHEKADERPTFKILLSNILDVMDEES

Row | SMILES | BTK_I_binding pIC50
1 | C=CC(=O)N[C@H]1CCC[C@H]1NC(=O)c1sc2nccc3c2c1NC(=O)N3c1cccc(-c2cccnc2)c1 [Example 202, N-((1R,2S)-2-Acrylamidocyclopentyl)-4-oxo-5-(3-(pyridin-3-yl)phenyl)-4,5-dihydro-3H-1-thia-3,5,8-triazaacenaphthylene-2-carboxamide] | 7.90
2 | C=CC(=O)N[C@H]1CCC[C@H]1NC(=O)c1sc2nccc3c2c1NC(=O)N3c1cnnc(-c2ccccc2)c1 [Example 203, N-((1R,2S)-2-Acrylamidocyclopentyl)-4-oxo-5-(6-phenylpyridazin-4-yl)-4,5-dihydro-3H-1-thia-3,5,8-triazaacenaphthylene-2-carboxamide] | 8.06
3 | C=CC(=O)N[C@H]1CCC[C@H]1NC(=O)c1sc2nccc3c2c1NC(=O)N3c1ccc(OC2CCOCC2)cc1C [Example 206, N-((1R,2S)-2-Acrylamidocyclopentyl)-5-(2-methyl-4-((tetrahydro-2H-pyran-4-yl)oxy)phenyl)-4-oxo-4,5-dihydro-3H-1-thia-3,5,8-triazaacenaphthylene-2-carboxamide] | 7.33
4 | Cc1cc(Oc2ccccc2)ccc1N1C(=O)Nc2c(C(=O)N[C@@H]3CC[C@@H](NC(=O)CN(C)C)C3)sc3nccc1c23 [Example 217, N-((1R,3R)-3-(2-(Dimethylamino)acetamido)cyclopentyl)-5-(2-methyl-4-phenoxyphenyl)-4-oxo-4,5-dihydro-3H-1-thia-3,5,8-triazaacenaphthylene-2-carboxamide] | 7.44
5 | C=CC(=O)N[C@@H]1CCCC[C@H]1NC(=O)c1sc2nccc3c2c1NC(=O)N3c1ccc(Oc2ccccc2)cn1 [Example 218, N-((1R,2R)-2-Acrylamidocyclohexyl)-4-oxo-5-(5-phenoxypyridin-2-yl)-4,5-dihydro-3H-1-thia-3,5,8-triazaacenaphthylene-2-carboxamide] | 6.76
6 | C=CC(=O)N[C@H]1CCC[C@H]1NC(=O)c1sc2nccc3c2c1NC(=O)N3c1ccc(Oc2ccccn2)cc1C [Example 220, N-((1R,2S)-2-acrylamidocyclopentyl)-5-(2-methyl-4-(pyridin-2-yloxy)phenyl)-4-oxo-4,5-dihydro-3H-1-thia-3,5,8-triazaacenaphthylene-2-carboxamide] | 8.16
7 | C=CC(=O)N[C@H]1CCCC[C@H]1NC(=O)c1sc2nccc3c2c1NC(=O)N3c1cnc(OC2CCCC2)cc1C [Example 223, N-((1R,2S)-2-Acrylamidocyclohexyl)-5-(6-(cyclopentyloxy)-4-methylpyridin-3-yl)-4-oxo-4,5-dihydro-3H-1-thia-3,5,8-triazaacenaphthylene-2-carboxamide] | 7.81
8 | C=CC(=O)N[C@H]1CCCC[C@H]1NC(=O)c1sc2nccc3c2c1NC(=O)N3c1cnc(OCC(C)C)cc1C [Example 225, N-((1R,2S)-2-Acrylamidocyclohexyl)-5-(6-isobutoxy-4-methylpyridin-3-yl)-4-oxo-4,5-dihydro-3H-1-thia-3,5,8-triazaacenaphthylene-2-carboxamide] | 7.66
9 | C=CC(=O)N[C@@H]1CCC[C@@H](NC(=O)c2sc3nccc4c3c2NC(=O)N4c2ccnc(-c3ccccc3)c2)C1 [Example 232, N-((1R,3R)-3-Acrylamidocyclohexyl)-4-oxo-5-(2-phenylpyridin-4-yl)-4,5-dihydro-3H-1-thia-3,5,8-triazaacenaphthylene-2-carboxamide] | 7.05
10 | Cc1cc(Oc2ccccc2)ccc1N1C(=O)Nc2c(C(=O)N[C@@H]3CC[C@@H](N)C3)sc3nccc1c23 [Example 236, N-((1R,3R)-3-Aminocyclopentyl)-5-(2-methyl-4-phenoxyphenyl)-4-oxo-4,5-dihydro-3H-1-thia-3,5,8-triazaacenaphthylene-2-carboxamide] | 7.00
11 | C=CC(=O)N[C@@H]1CCCC[C@H]1NC(=O)c1sc2nccc3c2c1NC(=O)N3c1ccc(Oc2ccccc2)nc1 [Example 239, N-((1R,2R)-2-Acrylamidocyclohexyl)-4-oxo-5-(6-phenoxypyridin-3-yl)-4,5-dihydro-3H-1-thia-3,5,8-triazaacenaphthylene-2-carboxamide] | 6.47
12 | CN(C)C/C=C/C(=O)N[C@@H]1CC[C@H](NC(=O)c2sc3nccc4c3c2NC(=O)N4c2ccc(Oc3ccccc3)c(Cl)c2)C1 [Example 248, 5-(3-Chloro-4-phenoxyphenyl)-N-((1S,3R)-3-((E)-4-(dimethylamino)but-2-enamido)cyclopentyl)-4-oxo-4,5-dihydro-3H-1-thia-3,5,8-triazaacenaphthylene-2-carboxamide] | 6.98
13 | N[C@H]1CCC[C@H]1NC(=O)c1sc2nccc3c2c1NC(=O)N3c1cccc(-c2ccccc2)c1 [Example 249, 5-([1,1′-Biphenyl]-3-yl)-N-((1R,2S)-2-aminocyclopentyl)-4-oxo-4,5-dihydro-3H-1-thia-3,5,8-triazaacenaphthylene-2-carboxamide] | 6.90

Results, then the molecule that gave them:

Row | BTK_I_binding pIC50 | SMILES
14 | 7.62 | C=CC(=O)N[C@H]1CCC[C@H]1NC(=O)c1sc2nccc3c2c1NC(=O)N3c1ccc(OC(C)C)cc1 [Example 205, N-((1R,2S)-2-Acrylamidocyclopentyl)-5-(4-isopropoxyphenyl)-4-oxo-4,5-dihydro-3H-1-thia-3,5,8-triazaacenaphthylene-2-carboxamide]
15 | 7.53 | C=CC(=O)N[C@H]1CCC[C@H]1NC(=O)c1sc2nccc3c2c1NC(=O)N3c1ccnc(C(C)C)c1 [Example 207, N-((1R,2S)-2-Acrylamidocyclopentyl)-5-(2-isopropylpyridin-4-yl)-4-oxo-4,5-dihydro-3H-1-thia-3,5,8-triazaacenaphthylene-2-carboxamide]
16 | 6.92 | C=CC(=O)N[C@H]1CCCC[C@H]1NC(=O)c1sc2nccc3c2c1NC(=O)N3c1ccc(OC(C)C)nc1C [Example 211, N-((1R,2S)-2-Acrylamidocyclohexyl)-5-(6-isopropoxy-2-methylpyridin-3-yl)-4-oxo-4,5-dihydro-3H-1-thia-3,5,8-triazaacenaphthylene-2-carboxamide]
17 | 7.49 | C=CC(=O)N[C@@H]1CC[C@@H](NC(=O)c2sc3nccc4c3c2NC(=O)N4c2ccnc(-c3ccccc3)c2)C1 [Example 212, N-((1R,3R)-3-Acrylamidocyclopentyl)-4-oxo-5-(2-phenylpyridin-4-yl)-4,5-dihydro-3H-1-thia-3,5,8-triazaacenaphthylene-2-carboxamide]
18 | 7.46 | C=CC(=O)N[C@H]1CCC[C@H]1NC(=O)c1sc2nccc3c2c1NC(=O)N3c1ccc(Oc2ncccn2)cc1C [Example 224, N-((1R,2S)-2-acrylamidocyclopentyl)-5-(2-methyl-4-(pyrimidin-2-yloxy)phenyl)-4-oxo-4,5-dihydro-3H-1-thia-3,5,8-triazaacenaphthylene-2-carboxamide]
19 | 6.76 | C=CC(=O)N[C@@H]1CCCC[C@H]1NC(=O)c1sc2nccc3c2c1NC(=O)N3c1ccnc(-c2ccccc2)c1 [Example 227, N-((1R,2R)-2-Acrylamidocyclohexyl)-4-oxo-5-(2-phenylpyridin-4-yl)-4,5-dihydro-3H-1-thia-3,5,8-triazaacenaphthylene-2-carboxamide]
20 | 7.34 | CC(=O)N[C@@H]1CC[C@@H](NC(=O)c2sc3nccc4c3c2NC(=O)N4c2ccc(Oc3ccccc3)cc2C)C1 [Example 228, N-((1R,3R)-3-Acetamidocyclopentyl)-5-(2-methyl-4-phenoxyphenyl)-4-oxo-4,5-dihydro-3H-1-thia-3,5,8-triazaacenaphthylene-2-carboxamide]
21 | 7.29 | CNCC(=O)N[C@@H]1CC[C@@H](NC(=O)c2sc3nccc4c3c2NC(=O)N4c2ccc(Oc3ccccc3)cc2C)C1 [Example 229, 5-(2-Methyl-4-phenoxyphenyl)-N-((1R,3R)-3-(2-(methylamino)acetamido)cyclopentyl)-4-oxo-4,5-dihydro-3H-1-thia-3,5,8-triazaacenaphthylene-2-carboxamide]
22 | 6.76 | C=CC(=O)N[C@H]1CCC[C@H]1NC(=O)c1sc2nccc3c2c1NC(=O)N3c1ccc(OC2CCOCC2)cc1 [Example 234, N-((1R,2S)-2-Acrylamidocyclopentyl)-4-oxo-5-(4-((tetrahydro-2H-pyran-4-yl)oxy)phenyl)-4,5-dihydro-3H-1-thia-3,5,8-triazaacenaphthylene-2-carboxamide]
23 | 7.44 | Cc1cc(Oc2ccccc2)ccc1N1C(=O)Nc2c(C(=O)N[C@@H]3CC[C@@H](NC(=O)CN)C3)sc3nccc1c23 [Example 235, N-((1R,3R)-3-(2-Aminoacetamido)cyclopentyl)-5-(2-methyl-4-phenoxyphenyl)-4-oxo-4,5-dihydro-3H-1-thia-3,5,8-triazaacenaphthylene-2-carboxamide]
24 | 6.73 | Cc1cc(Oc2ccccc2)ccc1N1C(=O)Nc2c(C(=O)N[C@H]3CC[C@H](NC(=O)CN(C)C)C3)sc3nccc1c23 [Example 245, N-((1S,3S)-3-(2-(Dimethylamino)acetamido)cyclopentyl)-5-(2-methyl-4-phenoxyphenyl)-4-oxo-4,5-dihydro-3H-1-thia-3,5,8-triazaacenaphthylene-2-carboxamide]
25 | 6.84 | CNCC(=O)N[C@H]1CC[C@H](NC(=O)c2sc3nccc4c3c2NC(=O)N4c2ccc(Oc3ccccc3)cc2C)C1 [Example 246, 5-(2-Methyl-4-phenoxyphenyl)-N-((1S,3S)-3-(2-(methylamino)acetamido)cyclopentyl)-4-oxo-4,5-dihydro-3H-1-thia-3,5,8-triazaacenaphthylene-2-carboxamide]

Same assay, conditions: read-out: BTK_I_binding pIC50 (converted)

Row | IC50 | SMILES
26 | > 1 µM | C=CC(=O)N[C@H]1CC[C@@H](NC(=O)c2sc3nccc4c3c2NC(=O)N4c2ccnc(-c3ccccc3)c2)C1 [Example 208, N-((1R,3S)-3-Acrylamidocyclopentyl)-4-oxo-5-(2-phenylpyridin-4-yl)-4,5-dihydro-3H-1-thia-3,5,8-triazaacenaphthylene-2-carboxamide]
